Paper PMC11861159, “Design, synthesis, and in vitro, in vivo, and in silico evaluation of novel substituted 1,3,4-thiadiazole derivatives as anticonvulsant agents” (Frontiers in Chemistry, 2025)

Columns and labels:
[1] = test system: superoxide dismutase (SOD); assay: Superoxide dismutase activity in brain homogenate of PTZ-treated mice; format: in vivo; conditions: compared to PTZ-administered group, n = 6
Experimental: (§1) Brain tissue homogenates were prepared by isolating the brain (tissue) from the mice. Animals were euthanized under anesthesia by ketamine (80 mg/kg) and xylazine (5 mg/kg) after 8 h of inducing test and standard compounds. Mice’s brains (tissue) were quickly removed and weighed, and the whole brain samples were washed twice with ice-cold saline solution before being deposited in glass vials, labeled, and stored in a deep freeze (−30°C) until further use. Brain tissue samples were homogenized with a glass handheld homogenizer (PTFE coated). Tissue homogenates (10% w/v) were prepared in cold 0.1 M phosphate buffer (pH adjusted to 7.4) using a homogenizer. To test biological parameters, the supernatant from homogenates was centrifuged at 12,000 rpm for 20 min at 4°C.
Sun et al.'s approach ([…]) was used to determine Cu, Zn-SOD activity. An oxidase complex ([…]) generates superoxide radicals, which react with NBT to yield the formazan molecule in this process. In brief, a reactive was created by combining 0.1 mM xanthine, 0.1 mM EDTA, 50 mg bovine serum albumin, 25 mM NBT, and 40 mM Na2CO3 (pH 10.2). […] The sample’s absorbance was measured at 560 nm. […] The quantity of the enzyme that blocked NBT conversion to formazan by 50% was determined as one unit of SOD activity. SOD activity was measured in units per milligram of protein.

[2] = molecular target: T1, human carbonic anhydrase II (Homo sapiens, UniProt P00918); assay: Human carbonic anhydrase II colorimetric (p-nitrophenyl acetate) inhibition assay; format: biochemical; conditions: mean ± SEM, three independent experiments in triplicate; read-out: CA II (IC50)
T1 construct: purchased Sino Biological Inc, Beijing, China
Experimental: (§2) In brief, the reaction mixture contained 60 μL of 50 mM Tris-sulfate buffer (pH 7.6, containing 0.1 mM ZnCl2),10 μL (0.5 mM) of the test compound in 1% DMSO, and 10 μL of human carbonic anhydrase II and IX (Sino Biological Inc, Beijing, China). All the ingredients were mixed well and pre-incubated at 25°C for 10 min. Substrate p-nitrophenyl acetate was prepared as a 6 mM stock solution using 5% of acetonitrile in buffer and was used fresh. […] The total assay volume was adjusted to 100 μL and further incubated at 37°C for 30 min. Furthermore, all the ingredients were mixed properly, and absorbance was measured. […] The results reported are the mean of triplicate experiments (±SEM) and expressed IC50 values, which were calculated.

MES-induced seizures = assay: Maximal electroshock-induced seizure (MES) test; format: in vivo, male Swiss albino mice; conditions: for Minimum active dose (mg/kg) MES 0.5 h / Minimum active dose (mg/kg) MES 4 h: oral, lowest dose active in half or more of the mice, n = 6;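 as to % protection MES 0.5 h: percent reduction of the test group versus the control group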;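 as to % protection MES 4 h: percent reduction of the test group versus the control group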
induced seizures = assay: Anticonvulsant screening (MES and sc-PTZ), outcome recovery/death
Experimental: The test compounds and the standard drugs were dissolved in a 0.9% NaCl solution.
After half an hour of p.o. administration of the standard and the tested compounds, an electro-convulsometer (Outus, Ambala Cantt, India) delivered an electrical stimulus of sufficient intensity (25 mA, 500 V, 50 Hz, 0.2 s) via auricular electrodes to induce maximal seizures (Figure 1). To avoid the animal’s death, a drop of 0.9% saline was injected into the eye before the insertion of the electrodes. The tonic hind limb extension (i.e., the hind limbs of the animals outstretched 180° to the plane of the body axis) served as the basic principle for the occurrence of seizure activity. Abolition of the hind limb tonic extensor (HLTE) component of the seizure is defined as protection.

PTZ-induced seizures = assay: Subcutaneous pentylenetetrazole (sc-PTZ) test; format: in vivo, male Swiss albino mice; conditions: for Minimum active dose (mg/kg) Sc-PTZ 0.5 h / Minimum active dose (mg/kg) Sc-PTZ 4 h: oral, lowest dose active in half or more of the mice, n = 6;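 as to % protection Sc-PTZ 0.5 h: percent reduction of the test group versus the control group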;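 as to % protection Sc-PTZ 4 h: percent reduction of the test group versus the control group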
mice = assay: Rotarod neurotoxicity screening; format: in vivo, male Swiss albino mice; conditions: for Neurotoxicity (rotarod test), result in words: at the highest dose (300 mg/kg); for Neurotoxicity dose (mg/kg) 0.5 h / Neurotoxicity dose (mg/kg) 4 h: rotarod, oral doses 30, 100, 300 mg/kg
Experimental: The rotarod test, as described in the literature, was used to evaluate neurotoxicity (NT) in mice. In brief, six mice (one group) were trained to balance on a spinning rod (3 cm diameter and 6 rpm speed) to familiarize with the rotarod apparatus (Orchid Scientific, India). Each mouse underwent three trials to remain on the rotating rod for over 1 minute, with the experiment’s cutoff time (180 s) remaining constant. Different pre-oral (p.o.) doses of test and standard substances were administered to the trained animals.

GABA level = assay: Estimation of brain GABA level; format: in vivo, mice; conditions: 30 mg/kg p.o., 2 h after administration, compared to pentylenetetrazole-treated group
Experimental: as §1, with “Animals were euthanized under anesthesia by ketamine (80 mg/kg) and xylazine (5 mg/kg) after 8 h of inducing test and standard compounds.” left out
The supernatant was put on silica gel 60 F254 aluminum sheets (10 cm × 10 cm) as the stationary phase, with the mobile phase consisting of water-saturated phenol. Prior to chromatography, TLC plates were prewashed with methanol and activated in an oven at 50°C for 5 min. The 0.1 mL supernatant solutions were applied in the form of bands on TLC plates. At room temperature, ascending development was carried out in a glass chamber saturated with the mobile phase for 30 min until a length of 80 mm was reached. The TLC plates that had been created were air-dried and treated with ninhydrin. […] The method’s specificity was determined by obtaining standard GABA samples and comparing their Rf values. […]

nitric oxide (NO) = assay: Nitrite/NO level (Greiss reagent) in brain homogenate of PTZ-treated mice; format: in vivo; conditions: brain supernatant, compared to pentylenetetrazole-treated group, n = 6
Experimental: as §1
Greiss reagent, a solution of 0.5% sulfonamide, 2.5% phosphoric acid, and 0.05% naphthyl ethylenediamine, was used to measure nitric oxide (NO) in TSH. Greiss reagent and TSH absorbance were measured at 540 nm, and the sodium nitrite standard curve was used to calculate the quantity of nitrite ([Wills, 1996]; [Green et al., 1982]).

[3] = test system: total antioxidant capacity (TAC); assay: Total antioxidant capacity (FRAP) in brain tissue of PTZ-treated mice; format: in vivo; conditions: compared to pentylenetetrazole-treated group, n = 6
Experimental: as §1
Total antioxidant capacity (TAC) was measured by mixing 200 μL of tissue samples with 3 mL of ferric-reducing antioxidant power (FRAP) reagent in a vortex. After incubating samples and blank tubes in a water bath for 30 min at 37°C, the absorbance of the samples was measured at 593 nm. For the standard curve, a stock solution of FeSO4.7H2O in distilled water was produced. Stock solution concentrations were 200, 400, 800, 1200, and 1600 μM. The curve results were given as mM of ferrous sulfate equivalent Fe2+/L ([Sun et al., 1988]).

glutathione (GSH) = assay: Reduced glutathione level in brain of PTZ-treated mice; format: in vivo; conditions: compared to pentylenetetrazole-treated group, n = 6
Experimental: as §1
The quantity of glutathione (GSH) in the brain was determined using the Sedlak and Lindsay method ([Pant et al., 2023]). In brief, brain tissue was deproteinized with an equal amount of 10% TCA and left at 4°C for 2 h. The contents were centrifuged for 15 min at 1200 rpm. The supernatant was mixed with 2 mL of 0.4 M Tris buffer (pH 8.9) containing 0.02 M EDTA (pH 8.9), and then 0.01 M DTNB was added. Finally, the mixture was diluted with 0.5 mL of distilled water to make a total volume of 3 mL, and absorbance was measured using a spectrophotometer at 412 nm, with results expressed as mg GSH/gm tissue.

[4] = molecular target: T2, human carbonic anhydrase IX (Homo sapiens, UniProt Q16790); assay: Human carbonic anhydrase IX colorimetric (p-nitrophenyl acetate) inhibition assay; format: biochemical; conditions: mean ± SEM, three independent experiments in triplicate; read-out: CA IX (IC50)
T2 construct: purchased Sino Biological Inc, Beijing, China
Experimental: as §2

| SMILES | IC50 [2] | % protection MES 0.5 h (MES-induced seizures; 30 mg/kg oral) | % protection MES 4 h (MES-induced seizures; 30 mg/kg oral) | % protection MES 0.5 h (MES-induced seizures; 100 mg/kg oral) | % protection MES 4 h (MES-induced seizures; 100 mg/kg oral) | % protection MES 0.5 h (MES-induced seizures; 300 mg/kg oral) | % protection MES 4 h (MES-induced seizures; 300 mg/kg oral) | Minimum active dose (mg/kg) MES 0.5 h (MES-induced seizures) | Minimum active dose (mg/kg) MES 4 h (MES-induced seizures) | Recovery/death (induced seizures; 30 mg/kg oral) | Recovery/death (induced seizures; 100 mg/kg oral) | Recovery/death (induced seizures; 300 mg/kg oral) | % protection Sc-PTZ 0.5 h (PTZ-induced seizures; 30 mg/kg oral) | % protection Sc-PTZ 0.5 h (PTZ-induced seizures; 100 mg/kg oral) | % protection Sc-PTZ 4 h (PTZ-induced seizures; 100 mg/kg oral) | % protection Sc-PTZ 0.5 h (PTZ-induced seizures; 300 mg/kg oral) | % protection Sc-PTZ 4 h (PTZ-induced seizures; 300 mg/kg oral) | Minimum active dose (mg/kg) Sc-PTZ 0.5 h (PTZ-induced seizures) | Minimum active dose (mg/kg) Sc-PTZ 4 h (PTZ-induced seizures) | Neurotoxicity (rotarod test), result in words (mice) | also measured |
| --- | --- | --- | --- | --- | --- | --- | --- | --- | --- | --- | --- | --- | --- | --- | --- | --- | --- | --- | --- | --- | --- |
| CCN(CC)CCOc1cccc(C(=O)Nc2nncs2)c1 [Compound 6d, 3-(2-(diethylamino)ethoxy)-N-(1,3,4-thiadiazol-2-yl)benzamide] | 80 ± 50 nM | 38.96% | 41.53% | 55.38% | 60% | 72.30% | 89.46% | 30 mg/kg | 30 mg/kg | Recovery | Recovery | Recovery | 38.59% | 58.30% | 66.34% | 70.4% | 82.88% | 30 mg/kg | 30 mg/kg | without any sign of neurotoxicity | SOD activity [1]: significant increase in SOD activity; % protection Sc-PTZ 4 h (PTZ-induced seizures; 30 mg/kg oral): 46.34%; Neurotoxicity dose (mg/kg) 0.5 h (mice): - (The indication - (dash) denotes a lack of action at the maximum dose supplied (300 mg/kg)); Neurotoxicity dose (mg/kg) 4 h (mice): - (The indication - (dash) denotes a lack of action at the maximum dose supplied (300 mg/kg)); GABA level in the brain (GABA level): significant increase in GABA levels; NO (nitrite) level (nitric oxide (NO)): significantly reduced NO levels; TAC level (FRAP) [3]: significant increase in TAC levels; GSH level (glutathione (GSH)): significant increase in GSH levels; IC50 [4]: 100 ± 20 nM |
| CCN(CC)CCOc1cc(C(=O)Nc2nncs2)ccc1OC [Compound 7d, 4-Methoxy-3-(2-(diethylamino)ethoxy)-N-(1,3,4-thiadiazol-2-yl)benzamide] | 480 ± 40 nM | 30.76% | 40% | 41.53% | 63.07% | 61.53% | 76.92% | 30 mg/kg | 30 mg/kg | Recovery | Recovery | Recovery | 42.43% | 53.27% | 62.85% | 61.46% | 75.18% | 30 mg/kg | 100 mg/kg | without any sign of neurotoxicity | Neurotoxicity dose (mg/kg) 0.5 h (mice): - (The indication - (dash) denotes a lack of action at the maximum dose supplied (300 mg/kg)); Neurotoxicity dose (mg/kg) 4 h (mice): - (The indication - (dash) denotes a lack of action at the maximum dose supplied (300 mg/kg)); GABA level in the brain (GABA level): significant increase in GABA levels; NO (nitrite) level (nitric oxide (NO)): significantly reduced NO levels; TAC level (FRAP) [3]: significant increase in TAC levels; GSH level (glutathione (GSH)): significant increase in GSH levels; IC50 [4]: 280 ± 30 nM |
